34 compounds from patent US9359308B2, “Pyrazine kinase inhibitors” (Portola Pharmaceuticals, Inc., priority 2011, dated 2016) can be followed below.

The structures appear in SMILES notation.

In general, IC50 refers to the concentration that inhibits the measured activity by half.

For this test, the target named is T1, full length active recombinant SYK enzyme (Homo sapiens, UniProt P43405).
T1 construct: full length active recombinant SYK enzyme (Millipore, Calif.); purchased Millipore
The test is described as follows: Inhibition of Syk tyrosine phosphorylation activity (LANCE TR-FRET kinase assay). In kind it is biochemical. Particulars: activity in the Syk assays, class symbols. Summed up:
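IC50 was derived by non-linear regression of TR-FRET signal (Eu-W1024-PY100 donor, streptavidin-APC acceptor) read 1 h after EDTA quench. The kinase step ran 1 h at room temperature with 1 nM full-length SYK, 550 nM biotinylated DEEDYESP substrate and 100 μM ATP in Tris pH 7.5/MgCl2/DTT at 3% final DMSO.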
On the technique in general: TR-FRET usually uses a lanthanide donor and a delayed reading to cut background.
For the compound `CC[C@@H](Nc1cnc(C(N)=O)c(Nc2cc(C(C)C)ns2)n1)C(N)=O` [Example 240, (R)-5-(1-amino-1-oxobutan-2-ylamino)-3-(3-isopropylisothiazol-5-ylamino)pyrazine-2-carboxamide], the concentration for half-maximal inhibition (IC50) lay within 10 to 100 nM. For the compound `CC(C)c1cc(Nc2nc(N[C@H](C)C(N)=O)cnc2C(N)=O)sn1` [Example 241, (R)-5-(1-amino-1-oxopropan-2-ylamino)-3-(3-isopropylisothiazol-5-ylamino)pyrazine-2-carboxamide], the IC50 lay within 1 to 10 nM.

Regarding `NC(=O)c1ncc(N[C@@H]2CCCC(F)(F)[C@@H]2N)nc1Nc1cc(C2CC2)ns1` [Example 242, 5-((1R,2R)-2-amino-3,3-difluorocyclohexylamino)-3-(3-cyclopropylisothiazol-5-ylamino)pyrazine-2-carboxamide], the IC50 fell in the range of 1 to 10 nM. Consider `C[C@@H](Nc1cnc(C(N)=O)c(Nc2cnc3ccc(F)cc3c2)n1)C(N)=O` [Example 243, (R)-5-(1-amino-1-oxopropan-2-ylamino)-3-(6-fluoroquinolin-3-ylamino)pyrazine-2-carboxamide], for which the IC50 lay within 1 to 10 nM.

With `CC(C)(C)[C@@H](Nc1cnc(C(N)=O)c(Nc2cc(C3CC3)ns2)n1)C(N)=O` [Example 244, (R)-5-(1-amino-3,3-dimethyl-1-oxobutan-2-ylamino)-3-(3-cyclopropylisothiazol-5-ylamino)pyrazine-2-carboxamide], the half-inhibitory concentration (IC50) lay within 1 to 10 nM. Regarding `CC(C)(C)C[C@@H](Nc1cnc(C(N)=O)c(Nc2cnc3cccnc3c2)n1)C(N)=O` [Example 246, (R)-3-(1,5-naphthyridin-3-ylamino)-5-(1-amino-4,4-dimethyl-1-oxopentan-2-ylamino)pyrazine-2-carboxamide], the IC50 is 1 to 10 nM.

`CC(C)(C)C[C@@H](Nc1cnc(C(N)=O)c(Nc2cncc(F)c2)n1)C(N)=O` [Example 247, (R)-5-(1-amino-4,4-dimethyl-1-oxopentan-2-ylamino)-3-(5-fluoropyridin-3-ylamino)pyrazine-2-carboxamide]: the IC50 fell in the range of 1 to 10 nM. The figure for `CN(C)C(=O)c1cc(Nc2nc(N[C@@H]3CCCC[C@@H]3N)cnc2C(N)=O)sn1` [Example 248, 5-(6-((1R,2S)-2-aminocyclohexylamino)-3-carbamoylpyrazin-2-ylamino)-N,N-dimethylisothiazole-3-carboxamide] is 1 to 10 nM; for `CC[C@@H](Nc1cnc(C(N)=O)c(Nc2cc(C(=O)N(C)C)ns2)n1)C(N)=O` [Example 249, (R)-5-(6-(1-amino-1-oxobutan-2-ylamino)-3-carbamoylpyrazin-2-ylamino)-N,N-dimethylisothiazole-3-carboxamide] it is 100 to 1000 nM; for `NC(=O)c1ncc(N[C@@H]2CCCC[C@@H]2N)nc1Nc1cc(CO)ns1` [Example 250, 5-((1R,2S)-2-aminocyclohexylamino)-3-(3-(hydroxymethyl)isothiazol-5-ylamino)pyrazine-2-carboxamide] it is 1 to 10 nM. The figure for `CC[C@@H](Nc1cnc(C(N)=O)c(Nc2cc(CO)ns2)n1)C(N)=O` [Example 251, (R)-5-(1-amino-1-oxobutan-2-ylamino)-3-(3-(hydroxymethyl)isothiazol-5-ylamino)pyrazine-2-carboxamide] is 10 to 100 nM.

In the case of `NC(=O)c1ncc(N[C@@H]2CCCC[C@@H]2N)nc1Nc1snc2sccc12` [Example 252, 5-((1R,2S)-2-aminocyclohexylamino)-3-(thieno[2,3-c]isothiazol-3-ylamino)pyrazine-2-carboxamide], the half-maximal inhibitory concentration (IC50) was less than 1 nM.

As to `COc1cncc(Nc2nc(N[C@H](CC(C)(C)C)C(N)=O)cnc2C(N)=O)c1` [Example 253, (R)-5-(1-amino-4,4-dimethyl-1-oxopentan-2-ylamino)-3-(5-methoxypyridin-3-ylamino)pyrazine-2-carboxamide], the IC50 was 1 to 10 nM. On to `CC[C@@H](Nc1cnc(C(N)=O)c(Nc2cc(CN3CCOCC3)ns2)n1)C(N)=O` [Example 254, (R)-5-(1-amino-1-oxobutan-2-ylamino)-3-(3-(morpholinomethyl)isothiazol-5-ylamino)pyrazine-2-carboxamide], for which the IC50 was in the range of 100 to 1000 nM. The figure for `NC(=O)c1ncc(N[C@@H]2CCCC[C@@H]2N)nc1Nc1cc(CN2CCOCC2)ns1` [Example 255, 5-((1R,2S)-2-aminocyclohexylamino)-3-(3-(morpholinomethyl)isothiazol-5-ylamino)pyrazine-2-carboxamide] is 10 to 100 nM; for `COc1cc(Nc2nc(N[C@H](CC(C)(C)C)C(N)=O)cnc2C(N)=O)ccn1` [Example 256, (R)-5-(1-amino-4,4-dimethyl-1-oxopentan-2-ylamino)-3-(2-methoxypyridin-4-ylamino)pyrazine-2-carboxamide] it is 1 to 10 nM; for `CC[C@@H](Nc1cnc(C(N)=O)c(Nc2cc(COC)ns2)n1)C(N)=O` [Example 257, (R)-5-(1-amino-1-oxobutan-2-ylamino)-3-(3-(methoxymethyl)isothiazol-5-ylamino)pyrazine-2-carboxamide] it is 10 to 100 nM. `NC(=O)c1ncc(N[C@@H]2CCCC[C@@H]2N)nc1Nc1cnn(C2CC2)c1` [Example 258, 5-((1R,2S)-2-aminocyclohexylamino)-3-(1-cyclopropyl-1H-pyrazol-4-ylamino)pyrazine-2-carboxamide]: the IC50 lay within 10 to 100 nM. As to `CC(C)(C)C[C@@H](Nc1cnc(C(N)=O)c(Nc2cnn(C3CC3)c2)n1)C(N)=O` [Example 259, (R)-5-(1-amino-4,4-dimethyl-1-oxopentan-2-ylamino)-3-(1-cyclopropyl-1H-pyrazol-4-ylamino)pyrazine-2-carboxamide], the IC50 lay in the range of 10 to 100 nM. Then `CC[C@@H](Nc1cnc(C(N)=O)c(Nc2cnn(C3CC3)c2)n1)C(N)=O` [Example 260, (R)-5-(1-amino-1-oxobutan-2-ylamino)-3-(1-cyclopropyl-1H-pyrazol-4-ylamino)pyrazine-2-carboxamide], with 100 to 1000 nM. Consider `CC(C)(C)C[C@@H](Nc1cnc(C(N)=O)c(Nc2snc3sccc23)n1)C(N)=O` [Example 261, (R)-5-(1-amino-4,4-dimethyl-1-oxopentan-2-ylamino)-3-(thieno[2,3-c]isothiazol-3-ylamino)pyrazine-2-carboxamide], for which the IC50 was 1 to 10 nM. For the compound `NC(=O)c1ncc(N[C@@H]2CCCC[C@@H]2N)nc1Nc1cnn(-c2ccccc2)c1` [Example 262, 5-((1R,2S)-2-aminocyclohexylamino)-3-(1-phenyl-1H-pyrazol-4-ylamino)pyrazine-2-carboxamide], the IC50 is less than 1 nM. For `NC(=O)c1ncc(N[C@@H]2CCCC[C@@H]2N)nc1Nc1ccnc(F)c1` [Example 263, 5-((1R,2S)-2-aminocyclohexylamino)-3-(2-fluoropyridin-4-ylamino)pyrazine-2-carboxamide], the IC50 fell in the range of 1 to 10 nM. Then `CC[C@@H](Nc1cnc(C(N)=O)c(Nc2ccnc(F)c2)n1)C(N)=O` [Example 264, (R)-5-(1-amino-1-oxobutan-2-ylamino)-3-(2-fluoropyridin-4-ylamino)pyrazine-2-carboxamide], with 10 to 100 nM. Then `CC(C)(C)C[C@@H](Nc1cnc(C(N)=O)c(Nc2ccnc(F)c2)n1)C(N)=O` [Example 265, (R)-5-(1-amino-4,4-dimethyl-1-oxopentan-2-ylamino)-3-(2-fluoropyridin-4-ylamino)pyrazine-2-carboxamide], with 1 to 10 nM.

As for `Cc1cc(Nc2nc(N[C@H](CC(C)(C)C)C(N)=O)cnc2C(N)=O)sn1` [Example 266, (R)-5-(1-amino-4,4-dimethyl-1-oxopentan-2-ylamino)-3-(3-methylisothiazol-5-ylamino)pyrazine-2-carboxamide], the 50% inhibitory concentration (IC50) lay in the range of 10 to 100 nM.

Consider `NC(=O)c1ncc(N[C@@H]2CCCC[C@@H]2N)nc1Nc1snc2ccsc12` [Example 267, 5-((1R,2S)-2-aminocyclohexylamino)-3-(thieno[3,2-c]isothiazol-3-ylamino)pyrazine-2-carboxamide], for which the IC50 was in the range of 1 to 10 nM. Then `CC[C@@H](Nc1cnc(C(N)=O)c(Nc2snc3ccsc23)n1)C(N)=O` [Example 268, (R)-5-(1-amino-1-oxobutan-2-ylamino)-3-(thieno[3,2-c]isothiazol-3-ylamino)pyrazine-2-carboxamide], with 1 to 10 nM; and `CC[C@@H](Nc1cnc(C(N)=O)c(Nc2snc3ccccc23)n1)C(N)=O` [Example 269, (R)-5-(1-amino-1-oxobutan-2-ylamino)-3-(benzo[c]isothiazol-3-ylamino)pyrazine-2-carboxamide], with less than 1 nM; and `NC(=O)c1ncc(N[C@@H]2CCCC[C@@H]2N)nc1Nc1snc2ccccc12` [Example 270, 5-((1R,2S)-2-aminocyclohexylamino)-3-(benzo[c]isothiazol-3-ylamino)pyrazine-2-carboxamide], with less than 1 nM.

Consider `CC[C@@H](Nc1cnc(C(N)=O)c(Nc2snc3sccc23)n1)C(N)=O` [Example 271, (R)-5-(1-amino-1-oxobutan-2-ylamino)-3-(thieno[2,3-c]isothiazol-3-ylamino)pyrazine-2-carboxamide], for which the IC50 was less than 1 nM.

`Cc1cccc(Nc2nc(N[C@@H]3CCCC[C@@H]3N)cnc2C(N)=O)c1` [Example 275, 5-((1R,2S)-2-aminocyclohexylamino)-3-(m-tolylamino)pyrazine-2-carboxamide]: the IC50 is less than 1 nM. With `NC(=O)c1ncc(N[C@@H]2CCCC[C@@H]2N)nc1Nc1ccc(-n2cccn2)cc1` [Example 276, 3-(4-(1H-pyrazol-1-yl)phenylamino)-5-((1R,2S)-2-aminocyclohexylamino)pyrazine-2-carboxamide], the half-inhibitory concentration (IC50) lay within 1 to 10 nM.

With `CN(C)C(=O)c1ccc(Nc2nc(N[C@@H]3CCCC[C@@H]3N)cnc2C(N)=O)cc1` [Example 277, 5-((1R,2S)-2-aminocyclohexylamino)-3-(4-(dimethylcarbamoyl)phenylamino)pyrazine-2-carboxamide], the concentration for half-maximal inhibition (IC50) lay within 10 to 100 nM.
